From PubChem BioAssay AID179 (DTP/NCI, 2004)
Activity calls are given as the source filed them.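 Rule for the calls: active = compounds giving half or more protection of infected cells from virus-caused growth loss, again on retest; inactive = the rest.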 Where a SMILES comes first, the peptide text is derived from it. [ ]: non-standard residue; d: D form. The star is where a group is joined. Phe(4-NO2) = N[CH](Cc1ccc([N+](=O)[O-])cc1)C(=O)O; Boc = CC(C)(C)OC(=O)*; OBn = c1ccc(CO*)cc1

System: CEM cells HIV-1 protection, formazan growth assay
Assay: NCI AIDS Antiviral Assay
Settings: for IC50: measured here: growth of uninfected CEM cells
How it was run: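 Screen of anti-HIV-1 activity in human CEM cells using a formazan-based growth measurement at five drug concentrations. Hits with 50% or greater protection were repeated, and confirmation required reproducible complete protection.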

| SMILES | EC50 | IC50 | outcome |
| --- | --- | --- | --- |
| NC(=S)N/C=C(/c1ccc(Cl)cc1Cl)S(=O)(=O)Cc1ccc(Cl)cc1Cl | > 100 µM | > 100 µM |  |
| CC(=O)NC1C(OCc2ccccc2)OC(CO)C(O)C1OCC(=O)NC(C)C(=O)NC(CCC(=O)NCCCCCNc1c2ccccc2nc2cccc([N+](=O)[O-])c12)C(N)=O (stereo not drawn) | > 200 µM | 0.0776 µM |  |
| CCC(=O)CCCC=C(c1cc(Cl)c(OC)c(C(=O)OC)c1)c1cc(Cl)c(OC)c(C(=O)OC)c1 | 1.45 µM | 40.7 µM |  |
| CCOC12SC(=Nc3ccc(C)cc3)NN1C(=S)N(C)N=C2C (stereo not drawn) | > 200 µM | > 200 µM |  |
| CCCCCCCCCCCCCCCCOCC(COP(=O)([O-])OCC[n+]1ccc(N(C)C)cc1)OCC (stereo not drawn) | > 200 µM | 66.1 µM |  |
| N#CCCN(CCC#N)c1ccc(/C=C2\N=C(c3ccccc3)N(c3ccc(F)cc3)C2=O)cc1 | > 200 µM | > 200 µM |  |
| CCCCN(C=O)CCc1ccccc1 | > 1230 µM | > 1230 µM |  |
| O=[N+]([O-])c1ccc2nc3ccc([N+](=O)[O-])cn3c2c1 | > 200 µM | > 200 µM |  |
| CC1(C(=O)O)CCCC2(C)[C@@H]3CCC4CC3(CC[C@H]12)C[C@@]4(C)O (stereo partly drawn) | > 200 µM | > 200 µM |  |
| O=C(CCC[n+]1ccccc1)CC(O)(C(F)(F)F)C(F)(F)F | > 200 µM | > 200 µM |  |
| O=c1ccn(CC2(CO)CCC2)c(=O)[nH]1 | > 200 µM | > 200 µM |  |
| C[C@@H]1C[C@@]2(O)[C@@H]3C[C@H](F)C4=CC(=O)CC[C@]4(C)[C@H]3[C@@H](O)C[C@]2(C)[C@@]1(O)C(=O)CO | > 200 µM | 178 µM |  |
| Cc1c(Cl)cccc1N1C(=O)C(Cl)=C(Cl)C1=O |  |  | inactive |
| C/C(=N\[N+](C)(C)C)c1ccc(C)c(C)c1 | > 200 µM | 102 µM |  |
| O=C1CC23CC(=O)CC2(C1)c1ccccc1C3=O (stereo not drawn) | > 389 µM | > 389 µM |  |
| Cc1ccc(NC(=O)c2c(NC(=O)CN3CCOCC3)c(C#N)c3n2CCC3)cc1 | > 200 µM | > 200 µM |  |
| CCOc1ccc(NC2OC(CO)C(O)C(O)C2NC(C)=O)cc1 (stereo not drawn) | > 200 µM | > 200 µM |  |

| SMILES | EC50 | IC50 | outcome |
| --- | --- | --- | --- |
| COC(=O)CSc1n[nH]c(-c2ccccc2)n1 | > 1000 µM | 372 µM |  |
| COc1cccc(/C=N/[N-]C(N)=O)c1[O-].[Ni+2].[OH3+] | > 166 µM | 0.0525 µM |  |
| CC(NC(=O)C(NC(=O)OC(C)(C)C)C(C)C)C(=O)N1CCCC1C(=O)O (stereo not drawn) (Boc-Val-Ala-Pro-OH; configuration not given here) | > 200 µM | > 200 µM |  |
| COc1cc(N=Nc2ccc3c(c2)Cc2ccccc2-3)c(OC)cc1N | > 200 µM | 46.8 µM |  |
| CCN(CC)c1c(C(=O)/C=C/c2ccccc2)c(-c2ccccc2)nn(C)c1=O | > 18.6 µM | 9.12 µM |  |
| CCCCCCCCCC1CC(=O)Oc2cccc(O)c21 (stereo not drawn) | > 25.1 µM | > 25.1 µM |  |
| COc1nc2c(nc(N)n2C2OCC(O)C(O)C2O)c(=O)n1C (stereo not drawn) |  |  | inactive |
| CNCCSSCCN | > 200 µM | > 200 µM |  |
| COC(=O)CCC(NC(=O)OC(C)(C)C)C(=O)NC(Cc1ccc([N+](=O)[O-])cc1)C(=O)NCC(=O)OCc1ccccc1 (stereo not drawn) (Boc-Glu(OMe)-[Phe(4-NO2)]-Gly-OBn; configuration not given here) | > 200 µM | > 200 µM |  |
| C#CCn1c(=O)c2cc(OC)c(OC)cc2n(CC#C)c1=O |  |  | inactive |
| CCc1nnc2sc3c(Cl)c4nn5c(CC)nnc5sc4c(Cl)c3nn12 | > 200 µM | 11.7 µM |  |
| CCOC(=O)C(NC(=O)c1ccccc1)(Nc1ccc(S(=O)(=O)Nc2ncccn2)cc1)C(F)(F)F (stereo not drawn) | > 200 µM | > 200 µM |  |
| COc1cc(OC)cc(-n2c(N)c(-c3nc4ccccc4n3C)c3ccc([N+](=O)[O-])cc3c2=O)c1 | > 200 µM | > 200 µM |  |
| Cc1cc2cc3c(=O)[nH]c(=O)cc-3n(CC(O)C(O)C(O)CO)c2cc1C (stereo not drawn) | > 200 µM | > 200 µM |  |
| CCCCCSSSCCCCC | > 200 µM | 34.7 µM |  |
| CN1C(=O)c2ccccc2C(O)(c2ccccc2)C1(O)c1ccccc1 (stereo not drawn) | > 200 µM | 64.6 µM |  |
